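Abbreviation: GI50, concentration required for 50% inhibition of growth. TGI marks complete inhibition of growth.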
Key:
Assay in all cases: growth of human tumour cells (NCI), 384-well format
[1] = test system: T-47D breast
[2] = test system: HT29 colon
[3] = test system: A498 renal
[4] = test system: NCI/ADR-RES ovarian
[5] = test system: K-562 leukemia
[6] = test system: EKVX NSCLC
[7] = test system: RPMI-8226 leukemia
[8] = test system: IGROV1 ovarian
[9] = test system: OVCAR-3 ovarian
[10] = test system: SN12C renal
[11] = test system: HL-60(TB) leukemia
[12] = test system: HCT-116 colon
[13] = test system: U251 glioblastoma
[14] = test system: NCI-H522 lung
[15] = test system: NCI-H23 lung
[16] = test system: HOP-92 NSCLC
[17] = test system: UACC-257 melanoma
[18] = test system: SF-539 CNS
[19] = test system: RXF 393 renal
[20] = test system: MOLT-4 leukemia
[21] = test system: HS 578T breast
[22] = test system: PC-3 prostate
[23] = test system: SK-MEL-28 melanoma
[24] = test system: SK-OV-3 ovarian
[25] = test system: COLO 205 colon
[26] = test system: NCI-H460 NSCLC
[27] = test system: SF-295 CNS
[28] = test system: MDA-MB-468 breast
[29] = test system: MALME-3M melanoma

For `O=C(C1CC1)N1CC[C@@H](Cc2n[nH]c(=O)n2-c2ccc(-c3ccc4occc4c3)cc2)C1`, the GI50 [1] was 29.8 µM, the TGI [1] was greater than 100 µM and the GI50 [2] was 29.2 µM. For the same compound, the TGI [2] was greater than 100 µM, the GI50 [3] was 29.4 µM and the TGI [3] was greater than 100 µM. For the same compound, the GI50 [4] was 22.3 µM, the TGI [4] was 85.1 µM and the GI50 [5] was 13.5 µM. It also gave a TGI [5] of 27.2 µM, a GI50 [6] of 22.9 µM and a TGI [6] greater than 100 µM. It also gave a GI50 [7] of 0.066 µM, a TGI [7] of 17.9 µM and a GI50 [8] of 34.3 µM. The TGI [8] was greater than 100 µM, the GI50 [9] was 21.6 µM and the TGI [9] was 59 µM. It also gave a GI50 [10] of 30 µM, a TGI [10] greater than 100 µM and a GI50 [11] of 0.0567 µM. For the same compound, the TGI [11] was 21.8 µM, the GI50 [12] was 20.2 µM and the TGI [12] was 48 µM. The GI50 [13] was 28 µM, the TGI [13] was greater than 100 µM and the GI50 [14] was 25.3 µM. For the same compound, the TGI [14] was 86.6 µM, the GI50 [15] was 29.6 µM and the TGI [15] was greater than 100 µM. It also gave a GI50 [16] of 37.5 µM, a TGI [16] greater than 100 µM and a GI50 [17] of 38.5 µM. It also gave a TGI [17] of 91.3 µM, a GI50 [18] of 53.5 µM and a TGI [18] greater than 100 µM. It also gave a GI50 [19] of 20.9 µM, a TGI [19] of 59.4 µM and a GI50 [20] of 11.5 µM. It also gave a TGI [20] of 23.7 µM, a GI50 [21] of 32.5 µM and a TGI [21] greater than 100 µM. It also gave a GI50 [22] of 42.9 µM, a TGI [22] greater than 100 µM and a GI50 [23] of 31.1 µM. The TGI [23] was greater than 100 µM, the GI50 [24] was 33.9 µM and the TGI [24] was greater than 100 µM. The GI50 [25] was 42.2 µM, the TGI [25] was greater than 100 µM and the GI50 [26] was 29.7 µM. For the same compound, the TGI [26] was greater than 100 µM, the GI50 [27] was 18.1 µM and the TGI [27] was 57.5 µM. The GI50 [28] was 15.5 µM, the TGI [28] was 45.5 µM and the GI50 [29] was 30.9 µM.

— PubChem BioAssay (NCI)
